Key:
[1] = target: T1, D2 (dopamine autoreceptor) (Rattus norvegicus, UniProt P61169); assay: Affinity for dopamine autoreceptor (D2 high-affinity agonist state), 3H-quinpirole binding, rat striatal brain tissue; conditions: read-out: IC50 (nM) D2 Quin.
T1 construct: homogenized rat striatal brain tissue; from tissue; host or cells: rat striatal brain tissue (homogenate)
Protocol: Affinity for the dopamine autoreceptor was established by a modification of the standard experimental test procedure of Seemen and Schaus, European Journal of Pharmacology 203: 105-109, 1991, wherein homogenized rat striatal brain tissue is incubated with ^3 H-quinpirole (Quin.) and various concentrations of test compound, filtered and washed and counted in a Betaplate scintillation counter.

dopamine D-2 receptor = target: T2, dopamine D-2 receptor (Rattus norvegicus, UniProt P61169); assay: Affinity for dopamine D-2 receptor, 3H-spiroperidol (Spiper.) binding, homogenized limbic brain tissue; conditions: read-out: IC50 (nM) D2 Spiper
T2 construct: homogenized limbic brain tissue; from tissue; host or cells: limbic brain tissue (homogenate)
T2 sequence (P61169 whole entry): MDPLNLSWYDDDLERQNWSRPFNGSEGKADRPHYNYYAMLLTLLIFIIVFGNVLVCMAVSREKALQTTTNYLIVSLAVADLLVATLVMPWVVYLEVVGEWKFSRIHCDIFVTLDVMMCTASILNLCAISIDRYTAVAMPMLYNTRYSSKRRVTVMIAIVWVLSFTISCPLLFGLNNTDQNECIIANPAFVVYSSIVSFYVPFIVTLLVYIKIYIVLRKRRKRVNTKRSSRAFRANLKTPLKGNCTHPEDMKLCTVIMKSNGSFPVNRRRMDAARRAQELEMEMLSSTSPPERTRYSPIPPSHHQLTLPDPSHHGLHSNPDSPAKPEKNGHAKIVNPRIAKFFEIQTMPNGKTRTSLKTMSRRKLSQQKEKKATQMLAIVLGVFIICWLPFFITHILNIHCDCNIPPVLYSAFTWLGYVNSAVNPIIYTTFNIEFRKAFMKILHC
Protocol: High affinity for the dopamine D-2 receptor was established by the standard experimental test procedure of Fields, et al., Brain Res., 136, 578 (1977) and Yamamura et al., eds., Neurotransmitter Receptor Binding, Raven Press, N.Y. (1978) wherein homogenized limbic brain tissue is incubated with ^3 H-spiroperidol (Spiper.) and various concentrations of test compound, filtered and washed and shaken with Hydrofluor scintillation cocktail (National Diagnostics) and counted in a Packard 460 CD scintillation counter.

T1 sequence (P61169 whole entry): as above

Compound	IC50 [1] [nM]	IC50 (dopamine D-2 receptor) [nM]
Cn1c(=O)[nH]c2cccc(OCCNCc3ccccc3)c21 [Example 3, 4(7)-(2-Benzylamino-ethoxy)-1-(3)-methyl-1,3-dihydro-benzoimidazol-2-one]	2.92	1350
O=c1[nH]c2cccc(OCCCNCc3ccccc3)c2[nH]1 [Example 4, 4-(3-Benzylamino-propoxy)-1,3-dihydro-benzoimidazol-2-one]	126	5980
CC(C)(C)c1ccc(CNCCOc2cccc3[nH]c(=O)[nH]c23)cc1 [Example 6, 4-[2-(4-tert-Butyl-benzylamino)-ethoxy]-1,3-dihydro-benzoimidazol-2-one]	0.81	47.8
O=c1[nH]c2cccc(OCCNCc3cccs3)c2[nH]1 [Example 7, 4-{2-[(Thiophen-2-ylmethyl)-amino]-ethoxy}-1,3-dihydro-benzoimidazol-2-one]	0.51	255
O=c1[nH]c2cccc(OCCNCc3ccc(Cl)cc3)c2[nH]1 [Example 8, 4-[2-(4-Chloro-benzylamino)-ethoxy]-1,3-dihydro-benzoimidazol-2-one]	0.3	99.5
O=c1[nH]c2cc(Cl)cc(OCCNCc3ccccc3)c2[nH]1 [Example 9, 4-(2-Benzylamino-ethoxy)-6-chloro-1,3-dihydro-benzoimidazol-2-one]	0.48	34.6
O=c1[nH]c2cccc(OCCNCCCc3ccccc3)c2[nH]1 [Example 13, 4-[2-(3-Phenyl-propylamine)-ethoxy]-1,3-dihydro-benzoimidazol-2-one]	0.3	30

Now from value to molecule:

IC50 [1] [nM]	IC50 (dopamine D-2 receptor) [nM]	Compound
0.51	60.6	O=c1[nH]c2cccc(OCCNCc3ccccc3)c2[nH]1 [Example 1, 4-(2-Benzylamino-ethoxy)-1,3-dihydro-benzoimidazol-2-one]
0.29	28.5	Cc1ccc(CNCCOc2cccc3[nH]c(=O)[nH]c23)cc1 [Example 2, 4-[2-(4-Methyl-benzylamino)-ethoxy]-1,3-dihydro-benzoimidazol-2-one]
0.6	38.7	O=c1[nH]c2cccc(OCCNCc3cccc4ccccc34)c2[nH]1 [Example 5, 4-{2-[(Naphthalen-1-ylmethyl)-amino]-ethoxy}-1,3-dihydro-benzoimidazol-2-one]
0.47	58	O=c1[nH]c2cc(Cl)cc(OCCNCc3cccs3)c2[nH]1 [Example 10, 6-Chloro-4-{2-[(thiophen-2-ylmethyl)-amino]-ethoxy}-1,3-dihydro-benzoimidazol-2-one]
0.31	67	O=c1[nH]c2cc(Cl)cc(OCCNCc3ccsc3)c2[nH]1 [Example 11, 6-Chloro-4-{2-[(thiophen-3-ylmethyl)-amino]-ethoxy}-1,3-dihydro-benzoimidazol-2-one]
12	658	O=c1[nH]c2cccc(OCCN3CCc4ccccc4C3)c2[nH]1 [Example 12, 4-[2-(2,3-Dihydro-1H-isoquinolin-2yl)-ethoxy]-1,3-dihydro-benzoimidazol-2-one]

From patent US5990144A, “4-aminoalkoxy-1,3-dihydrobenzoimidazol-2-one dopamine autoreceptor agonists” (American Home Products Corporation, priority 1998, dated 1999)
